Calls of active or inactive are those of the source. The rule behind the calls is not given here.
Columns and labels:
[1] = system: Trichoplusia ni; test: Insecticidal activity against Trichoplusia ni (cabbage looper) assessed as mortality after 3 days by cabbage leaf dip bioassay; format: functional; set-up: concentration or dose not given beside the values
[2] = system: Trichoplusia ni; test: Insecticidal activity against Trichoplusia ni (cabbage looper) assessed as mortality after 2 days by cabbage leaf dip bioassay; format: functional, organism-based
[3] = Toxicity in Mus musculus ICR (mouse); format: organism-based; conditions: in vivo
[4] = system: Trichoplusia ni; test: Insecticidal activity against Trichoplusia ni (cabbage looper) assessed as mortality after 6 hr by cabbage leaf dip bioassay; format: functional, organism-based

SMILES | mortality [1] | Activity [2] | LD50 [3] | Activity [4]
CC[C@H](C)[C@H]1O[C@]2(C=C[C@@H]1C)C[C@@H]1C[C@@H](C/C=C(\C)[C@@H](O[C@H]3C[C@H](OC)[C@@H](O[C@@H]4C[C@@H](OC)[C@@H](NC)[C@@H](C)O4)[C@H](C)O3)[C@@H](C)/C=C/C=C3\CO[C@@H]4[C@H](O)C(C)=C[C@@H](C(=O)O1)[C@]34O)O2.O=C(O)c1ccccc1 | 90% | Active |  | 
CC[C@H](C)[C@H]1O[C@]2(C=C[C@@H]1C)C[C@@H]1C[C@@H](C/C=C(\C)[C@@H](O[C@H]3C[C@H](OC)[C@@H](O[C@H]4C[C@H](OC)[C@@H](O)[C@H](C)O4)[C@H](C)O3)[C@@H](C)/C=C/C=C3\CO[C@@H]4[C@H](O)C(C)=C[C@@H](C(=O)O1)[C@]34O)O2 [ABAMECTIN COMPONENT B1A] | 53% | Active |  | 
CC[C@H](C)[C@H]1O[C@]2(C=C[C@@H]1C)C[C@@H]1C[C@@H](C/C=C(\C)[C@@H](O[C@H]3C[C@H](OC)[C@@H](O[C@H]4O[C@@H](C)[C@@H](O)[C@@H](O)[C@@H]4O)[C@H](C)O3)[C@@H](C)/C=C/C=C3\CO[C@@H]4[C@H](O)C(C)=C[C@@H](C(=O)O1)[C@]34O)O2 | 37% |  |  | 
CC[C@H](C)[C@H]1O[C@]2(C=C[C@@H]1C)C[C@@H]1C[C@@H](C/C=C(\C)[C@@H](O[C@H]3C[C@H](OC)[C@@H](O[C@@H]4C[C@@](C)(OC)[C@@H](OC)[C@H](C)O4)[C@H](C)O3)[C@@H](C)/C=C/C=C3\CO[C@@H]4[C@H](O)C(C)=C[C@@H](C(=O)O1)[C@]34O)O2 | 85% |  |  | 
CC[C@H](C)[C@H]1O[C@]2(C=C[C@@H]1C)C[C@@H]1C[C@@H](C/C=C(\C)[C@@H](O[C@H]3C[C@H](OC)[C@@H](O[C@H]4O[C@@H](C)[C@@H](OC)[C@@H](OC)[C@@H]4OC)[C@H](C)O3)[C@@H](C)/C=C/C=C3\CO[C@@H]4[C@H](O)C(C)=C[C@@H](C(=O)O1)[C@]34O)O2 | 93% |  | 87.5 mg/kg | Active
CC[C@H](C)[C@H]1O[C@]2(C=C[C@@H]1C)C[C@@H]1C[C@@H](C/C=C(\C)[C@@H](O[C@H]3C[C@H](OC)[C@@H](O[C@@H]4C[C@@](C)(OC)[C@@H](OC(C)=O)[C@H](C)O4)[C@H](C)O3)[C@@H](C)/C=C/C=C3\CO[C@@H]4[C@H](O)C(C)=C[C@@H](C(=O)O1)[C@]34O)O2 | 72% |  |  | 
CC[C@H](C)[C@H]1O[C@]2(C=C[C@@H]1C)C[C@@H]1C[C@@H](C/C=C(\C)[C@@H](O[C@H]3C[C@H](OC)[C@@H](O[C@@H]4C[C@@](C)(OC)[C@@H](O)[C@H](C)O4)[C@H](C)O3)[C@@H](C)/C=C/C=C3\CO[C@@H]4[C@H](O)C(C)=C[C@@H](C(=O)O1)[C@]34O)O2 | 93% |  | 17.5 mg/kg | Active
CC[C@H](C)[C@H]1O[C@]2(C=C[C@@H]1C)C[C@@H]1C[C@@H](C/C=C(\C)[C@@H](O[C@H]3C[C@H](OC)[C@@H](O[C@@H]4C[C@@](C)(O)[C@@H](OC(C)=O)[C@H](C)O4)[C@H](C)O3)[C@@H](C)/C=C/C=C3\CO[C@@H]4[C@H](O)C(C)=C[C@@H](C(=O)O1)[C@]34O)O2 | 61% |  |  | 

From ChEMBL document CHEMBL3046489, “Synthesis of new, potent avermectin-like insecticidal agents” (Carbohydr Res, 2005)
